The values that follow come from patent publication US9101638B2, “Boronic acid derivatives and therapeutic uses thereof” (Rempex Pharmaceuticals, Inc., priority 2013, dated 2015).

Assay [1] relates to KP1004 (KPC-2). As to the kind of experiment: Potentiation of biapenem, strain KP1004. The following applies: strain KP1004 KPC-2, biapenem alone. The class given is cell-based. On the procedure:
(§1) Biapenem was present in the test medium at 1 μg/mL. […] Table 3 summarizes the BLI potency of biapenem potentiation (MPC@1) for two strains overexpressing class A (KPC) and class D (OXA-48) carbapenemases. Biapenem MIC for each strain is also shown.

Assay [2] has as its system KP1086 (OXA-48). As to the kind of experiment: Potentiation of biapenem, strain KP1086. The class given is cell-based. The following applies: strain KP1086 OXA-48, biapenem alone. The procedure: as §1
The test system of assay [3] is PAM1032/KPC-2. As to the kind of experiment: Biapenem potentiation in PAM1032/KPC-2 (MexAB-OprM overexpressed). The following applies: Pseudomonas aeruginosa. The class given is cell-based, Pseudomonas aeruginosa. The procedure:
(§2) Efflux of BLIs from Pseudomonas aeruginosa by the MexAB-OprM efflux pump was also evaluated. […] Due to expression of KPC-2 both strains became resistant to biapenem. […] Potency of BLIs to potentiate biapenem in these strains was determined. […] The ratio of MPC64 values for each BLI in PAM1032/KPC-2 (efflux proficient) and PAM1154/KPC-2 (efflux deficient) was determined to generate the Efflux Index (EI).

Assay [4] deals with PAM1154/KPC-2. As to the kind of experiment: Biapenem potentiation in PAM1154/KPC-2 (MexAB-OprM lacking). The class given is cell-based, Pseudomonas aeruginosa. The following applies: Pseudomonas aeruginosa. The procedure:
as §2

In assay [5] the target is T1, Trypsin (Bos taurus, UniProt P00760).
T1 construct: purchased Calbiochem 6502
T1 sequence (P00760 24-246): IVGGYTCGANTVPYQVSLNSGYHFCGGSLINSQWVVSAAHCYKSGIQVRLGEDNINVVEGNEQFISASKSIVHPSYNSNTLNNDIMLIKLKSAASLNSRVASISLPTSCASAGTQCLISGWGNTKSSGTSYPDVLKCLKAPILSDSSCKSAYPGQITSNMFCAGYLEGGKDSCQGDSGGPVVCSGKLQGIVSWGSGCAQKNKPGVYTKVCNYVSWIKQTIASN
As to the kind of experiment: Serine protease inhibition: trypsin. The class given is biochemical, mammalian. On the procedure: (§3) The effect of selected BLIs on the enzymatic activity of some common mammalian serine proteases was evaluated.
(§4) 50 μl of the diluted enzyme was mixed with 50 μl of inhibitor at various concentrations and 50 μl of corresponding buffer (Table 7). Reaction mixtures were incubated for 10 min at 37° C. Subsequently, 50 μl of corresponding substrate (Table 7) was added and absorbance or fluorescence was monitored for 30 min on SpectraMax M2 plate reader (Molecular Devices). 4-(2-Aminoethyl)benzenesulfonyl fluoride hydrochloride (AEBSF) and leupeptin were used as positive controls. Rates of reaction were calculated and presented relative to “no treatment” control.

For assay [6], the target named is T2, Chymotrypsin (Bos taurus, UniProt P00766).
T2 construct: purchased Calbiochem 230832
The assay can be described thus: Serine protease inhibition: chymotrypsin. The class given is biochemical, mammalian. The procedure:
as §3, §4

In assay [7] the target is T3, Thrombin (Homo sapiens, UniProt P00734).
T3 construct: Thrombin; MPBio; 19491880; purchased MPBio 19491880
As to the kind of experiment: Serine protease inhibition: thrombin. The class given is biochemical, mammalian. The following applies: Table 8A, positive controls, numeric; read-out: IC50 Thrombin. The procedure:
as §3, §4

Assay [8] has as its target T4, Plasmin (Homo sapiens, UniProt P00747).
T4 construct: Plasmin; MPBio; 19419890; purchased MPBio 19419890
As to the kind of experiment: Serine protease inhibition: plasmin. The class given is biochemical, mammalian. The procedure:
as §3, §4

Assay [9] addresses T5, Elastase (Sus scrofa, UniProt P00772).
T5 construct: purchased Calbiochem 324682
As to the kind of experiment: Serine protease inhibition: elastase. The class given is biochemical, mammalian. On the procedure:
as §3, §4

For assay [10], the target named is T6, Urokinase (Homo sapiens, UniProt P00749).
T6 construct: purchased Calbiochem 672112
As to the kind of experiment: Serine protease inhibition: urokinase. The following applies: Table 8A, positive controls, numeric; read-out: IC50 Urokinase. The class given is biochemical, mammalian. On the procedure:
as §3, §4

Assay [11] addresses T7, Chymase (Homo sapiens, UniProt P23946).
T7 construct: purchased Enzo Lifescience BML-SE281
T7 sequence (P23946 22-247): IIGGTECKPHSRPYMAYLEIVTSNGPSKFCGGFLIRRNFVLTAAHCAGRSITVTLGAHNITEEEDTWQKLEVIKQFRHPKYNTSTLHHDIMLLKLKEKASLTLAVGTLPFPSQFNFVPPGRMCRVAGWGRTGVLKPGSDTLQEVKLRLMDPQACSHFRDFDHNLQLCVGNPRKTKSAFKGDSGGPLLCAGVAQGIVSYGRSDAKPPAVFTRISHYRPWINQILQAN
As to the kind of experiment: Serine protease inhibition: chymase. The class given is biochemical, mammalian. The following applies: Table 8A, positive controls, numeric; read-out: IC50 Chymase. On the procedure:
as §3, §4

For assay [12], the target named is T8, Neutrophil elastase (Homo sapiens, UniProt P08246).
T8 construct: purchased Calbiochem 324681
T8 sequence (P08246 30-267): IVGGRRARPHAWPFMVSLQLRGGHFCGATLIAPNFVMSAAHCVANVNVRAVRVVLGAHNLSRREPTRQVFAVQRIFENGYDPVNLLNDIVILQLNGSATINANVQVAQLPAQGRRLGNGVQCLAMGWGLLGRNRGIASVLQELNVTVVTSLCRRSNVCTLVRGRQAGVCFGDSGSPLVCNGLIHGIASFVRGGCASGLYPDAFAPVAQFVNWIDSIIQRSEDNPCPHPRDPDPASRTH
The assay can be described thus: Serine protease inhibition: neutrophil elastase. The class given is biochemical, mammalian. The following applies: Table 8B; read-out: IC50 Neutrophil elastase. The procedure: as §3, §4

Assay [13] has as its target T9, CathepsinA (Homo sapiens, UniProt P10619).
T9 construct: purchased R&D Systems 1049-SE
T9 sequence (P10619 29-480): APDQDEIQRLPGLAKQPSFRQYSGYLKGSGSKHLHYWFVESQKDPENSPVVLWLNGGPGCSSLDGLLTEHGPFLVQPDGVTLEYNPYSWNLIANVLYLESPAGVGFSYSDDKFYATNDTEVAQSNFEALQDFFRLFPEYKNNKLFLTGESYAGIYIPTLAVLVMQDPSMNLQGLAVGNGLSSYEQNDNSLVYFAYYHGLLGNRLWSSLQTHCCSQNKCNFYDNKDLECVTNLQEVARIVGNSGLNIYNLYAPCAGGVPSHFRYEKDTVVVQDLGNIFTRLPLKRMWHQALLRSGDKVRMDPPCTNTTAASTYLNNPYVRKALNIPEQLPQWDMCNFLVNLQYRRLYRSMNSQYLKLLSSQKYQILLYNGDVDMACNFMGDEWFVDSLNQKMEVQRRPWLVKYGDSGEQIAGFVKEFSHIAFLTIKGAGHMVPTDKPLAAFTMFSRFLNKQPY
As to the kind of experiment: Serine protease inhibition: cathepsin A. The class given is biochemical, mammalian. On the procedure:
as §3, §4

In assay [14] the target is T10, HtrA2 (Homo sapiens, UniProt O43464).
T10 sequence (O43464 134-458): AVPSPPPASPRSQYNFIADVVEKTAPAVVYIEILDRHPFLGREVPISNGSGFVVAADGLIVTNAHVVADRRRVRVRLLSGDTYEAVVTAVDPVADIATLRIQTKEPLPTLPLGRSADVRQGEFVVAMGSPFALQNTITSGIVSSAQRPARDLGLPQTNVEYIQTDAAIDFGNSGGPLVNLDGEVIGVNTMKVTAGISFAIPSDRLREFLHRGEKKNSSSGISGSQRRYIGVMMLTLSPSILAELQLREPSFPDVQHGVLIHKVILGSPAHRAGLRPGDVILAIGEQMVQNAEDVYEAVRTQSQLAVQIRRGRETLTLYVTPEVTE
The assay can be described thus: Serine protease inhibition: HtrA2. The class given is biochemical, mammalian. On the procedure: as §3, §4

Assay [15] has as its target T11, Dipeptidyl peptidase 7 (DPP7) (Homo sapiens, UniProt Q9UHL4).
T11 construct: purchased R&D Systems 3438-SE
The assay can be described thus: Serine protease inhibition: DPP7. The class given is biochemical, mammalian. The procedure:
as §3, §4

In assay [16] the target is T12, Dipeptidyl peptidase 8 (DPP8) (Homo sapiens, UniProt Q6V1X1).
T12 construct: purchased BPS Bioscience 80080
T12 sequence (Q6V1X1 whole entry): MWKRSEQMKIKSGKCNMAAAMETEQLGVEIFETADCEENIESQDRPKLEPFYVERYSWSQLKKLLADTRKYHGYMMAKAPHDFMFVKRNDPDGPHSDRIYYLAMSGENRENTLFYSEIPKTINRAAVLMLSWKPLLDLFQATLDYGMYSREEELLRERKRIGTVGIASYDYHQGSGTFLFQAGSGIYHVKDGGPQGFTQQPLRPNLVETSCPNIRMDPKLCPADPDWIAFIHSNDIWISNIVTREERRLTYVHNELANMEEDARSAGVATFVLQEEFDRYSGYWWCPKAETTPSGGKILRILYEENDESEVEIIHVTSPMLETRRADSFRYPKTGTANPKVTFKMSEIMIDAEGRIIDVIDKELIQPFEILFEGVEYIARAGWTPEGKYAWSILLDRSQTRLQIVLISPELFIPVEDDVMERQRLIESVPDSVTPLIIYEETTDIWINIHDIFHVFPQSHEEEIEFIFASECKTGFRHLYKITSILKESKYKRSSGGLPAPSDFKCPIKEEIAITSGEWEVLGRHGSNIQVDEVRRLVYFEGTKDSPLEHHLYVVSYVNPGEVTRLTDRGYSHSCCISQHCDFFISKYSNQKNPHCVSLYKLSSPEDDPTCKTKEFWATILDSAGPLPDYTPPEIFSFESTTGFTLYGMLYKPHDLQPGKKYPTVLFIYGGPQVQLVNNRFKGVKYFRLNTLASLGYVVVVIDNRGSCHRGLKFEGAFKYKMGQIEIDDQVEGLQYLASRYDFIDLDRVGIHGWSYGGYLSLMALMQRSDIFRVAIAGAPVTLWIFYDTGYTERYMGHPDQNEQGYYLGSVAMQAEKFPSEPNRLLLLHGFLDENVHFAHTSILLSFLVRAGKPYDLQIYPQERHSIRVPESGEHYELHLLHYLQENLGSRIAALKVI
The assay can be described thus: Serine protease inhibition: DPP8. The class given is biochemical, mammalian. On the procedure: as §3, §4

Assay [17] concerns the target T13, Dipeptidyl peptidase 9 (DPP9) (Homo sapiens, UniProt Q86TI2).
T13 construct: purchased BPS Bioscience 80090
As to the kind of experiment: Serine protease inhibition: DPP9. The class given is biochemical, mammalian. On the procedure:
as §3, §4

Assay [18] relates to ec308 (SHV-5). The assay can be described thus: Potentiation of tigemonam, strain ec308. The class given is cell-based. The following applies: strain ec308 SHV-5, tigemonam alone.
Assay [19] deals with ec302 (TEM-10). The assay can be described thus: Potentiation of tigemonam, strain ec302. The class given is cell-based. The following applies: strain ec302 TEM-10, tigemonam alone.
Assay [20] concerns EC1010 (CMY-6). The class given is cell-based. The following applies: strain EC1010 CMY-6, tigemonam alone.
Assay [21] has as its system KP1005 (CTX-M-14).
In assay [22] the test system is KP1009 (CTX-M-15). As to the kind of experiment: Potentiation of tigemonam, strain KP1009. The following applies: strain KP1009 CTX-M-15, tigemonam alone.
In assay [23] the test system is KP1010 (SHV-12). The assay can be described thus: Potentiation of tigemonam, strain KP1010. The following applies: strain KP1010 SHV-12, tigemonam alone.

T5 sequence (P00772 27-266): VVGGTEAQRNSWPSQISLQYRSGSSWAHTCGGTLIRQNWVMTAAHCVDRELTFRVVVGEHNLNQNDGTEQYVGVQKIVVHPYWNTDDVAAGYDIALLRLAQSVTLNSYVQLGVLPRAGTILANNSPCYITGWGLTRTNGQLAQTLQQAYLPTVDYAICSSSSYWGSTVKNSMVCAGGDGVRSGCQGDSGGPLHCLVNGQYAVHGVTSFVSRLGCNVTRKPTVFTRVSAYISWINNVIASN
T4 sequence (P00747 581-810 limits assumed, species assumed): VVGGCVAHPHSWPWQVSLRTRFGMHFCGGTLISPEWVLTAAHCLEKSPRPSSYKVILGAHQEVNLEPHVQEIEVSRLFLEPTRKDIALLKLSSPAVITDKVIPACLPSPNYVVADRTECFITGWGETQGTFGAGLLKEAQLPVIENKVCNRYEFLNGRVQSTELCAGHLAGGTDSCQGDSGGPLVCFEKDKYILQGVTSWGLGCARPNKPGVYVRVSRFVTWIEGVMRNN
T4 sequence (P00747 97-580 partner limits assumed, species assumed): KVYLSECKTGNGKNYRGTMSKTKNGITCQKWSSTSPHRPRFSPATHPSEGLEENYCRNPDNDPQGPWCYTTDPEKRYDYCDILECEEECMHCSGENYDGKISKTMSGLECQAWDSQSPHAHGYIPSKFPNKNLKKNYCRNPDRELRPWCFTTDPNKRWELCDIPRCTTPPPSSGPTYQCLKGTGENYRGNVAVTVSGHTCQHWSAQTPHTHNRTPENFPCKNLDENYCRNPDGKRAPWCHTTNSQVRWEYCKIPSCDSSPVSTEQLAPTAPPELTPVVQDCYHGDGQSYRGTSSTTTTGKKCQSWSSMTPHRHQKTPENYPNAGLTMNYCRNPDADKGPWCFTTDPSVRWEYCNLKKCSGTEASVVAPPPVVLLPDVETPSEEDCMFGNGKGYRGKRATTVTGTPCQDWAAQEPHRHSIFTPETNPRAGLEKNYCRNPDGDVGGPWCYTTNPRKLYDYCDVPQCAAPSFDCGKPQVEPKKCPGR
T13 sequence (Q86TI2 whole entry): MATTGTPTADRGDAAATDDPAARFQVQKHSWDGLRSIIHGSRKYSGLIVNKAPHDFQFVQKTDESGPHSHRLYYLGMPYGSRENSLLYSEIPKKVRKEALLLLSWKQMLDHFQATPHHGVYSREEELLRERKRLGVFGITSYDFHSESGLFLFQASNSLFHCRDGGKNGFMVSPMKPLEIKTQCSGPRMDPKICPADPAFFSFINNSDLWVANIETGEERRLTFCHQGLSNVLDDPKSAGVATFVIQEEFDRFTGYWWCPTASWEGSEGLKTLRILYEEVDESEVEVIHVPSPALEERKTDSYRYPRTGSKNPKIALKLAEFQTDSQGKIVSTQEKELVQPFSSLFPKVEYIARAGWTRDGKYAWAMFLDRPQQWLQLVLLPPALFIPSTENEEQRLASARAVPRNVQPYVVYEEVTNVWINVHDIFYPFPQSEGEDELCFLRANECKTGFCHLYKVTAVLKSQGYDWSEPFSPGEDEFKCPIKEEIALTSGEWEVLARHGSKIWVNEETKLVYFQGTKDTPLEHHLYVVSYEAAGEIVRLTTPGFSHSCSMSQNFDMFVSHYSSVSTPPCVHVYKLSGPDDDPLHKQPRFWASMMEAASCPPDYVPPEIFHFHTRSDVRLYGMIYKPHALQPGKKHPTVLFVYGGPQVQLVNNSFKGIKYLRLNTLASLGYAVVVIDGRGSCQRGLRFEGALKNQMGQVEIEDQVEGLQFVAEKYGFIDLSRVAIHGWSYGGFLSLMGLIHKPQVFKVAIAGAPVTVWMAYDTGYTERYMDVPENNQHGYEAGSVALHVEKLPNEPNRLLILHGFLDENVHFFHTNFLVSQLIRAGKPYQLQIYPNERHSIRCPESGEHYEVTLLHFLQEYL

For the compound `C[C@@H](O)[C@H]1C(=O)N2C(C(=O)[O-])=C(SC3Cn4cnc[n+]4C3)[C@H](C)[C@H]12` (some centres unmarked) [Biapenem, reference compound], the MIC in assay [1] was found to be 32 µg/mL; in [2], 16 µg/mL; in assay [3], 32 µg/mL; in assay [4] it was 32 µg/mL.
As to `CC(=O)N[C@@H](CC(C)C)C(=O)N[C@@H](CC(C)C)C(=O)N[C@H](C=O)CCCNC(=N)N` [Leupeptin, leupeptin, reference compound], the IC50 in assay [5] is under 0.27 µM; in assay [6] it was over 200 µM; in assay [7], 15 µM; in [8], 5 µM; in [9], over 200 µM; in assay [10] it was 22 µM. In addition, the IC50 in assay [11] was over 200 µM; in [12], 15 to 500 µM; in assay [13], 15 to 500 µM; in assay [14] it was over 500 µM; in assay [15] it was 15 to 500 µM; in [16] it was 15 to 500 µM. The IC50 in assay [17] lay within 15 to 500 µM.
As to `CC1(C)[C@H](NC(=O)/C(=N\OCC(=O)O)c2csc(N)n2)C(=O)N1OS(=O)(=O)O` [Tigemonam, reference compound], the “Tigemonam MIC” value was over 64 µg/mL in assay [18]; over 64 µg/mL in assay [19]; 16 µg/mL in assay [20]; over 64 µg/mL in [21]; over 64 µg/mL in [22]; over 64 µg/mL in assay [23].

The term MIC denotes the smallest concentration in the dilution series that meets the test's criterion for growth inhibition. One may read the IC50 as the concentration that inhibits the measured activity by half.
